Laboratory results reported in publication PMC3078184 (Cancer research, 2011).

What was measured:
[1] = target: ABCB1 (Homo sapiens, UniProt P08183); assay: vanadate-sensitive ATPase stimulation in membrane vesicles; format: biochemical
[2] = target: T1, ABCG2 (Homo sapiens, UniProt Q9UNQ0); assay: as above; format: biochemical
T1 sequence (Q9UNQ0 1-655): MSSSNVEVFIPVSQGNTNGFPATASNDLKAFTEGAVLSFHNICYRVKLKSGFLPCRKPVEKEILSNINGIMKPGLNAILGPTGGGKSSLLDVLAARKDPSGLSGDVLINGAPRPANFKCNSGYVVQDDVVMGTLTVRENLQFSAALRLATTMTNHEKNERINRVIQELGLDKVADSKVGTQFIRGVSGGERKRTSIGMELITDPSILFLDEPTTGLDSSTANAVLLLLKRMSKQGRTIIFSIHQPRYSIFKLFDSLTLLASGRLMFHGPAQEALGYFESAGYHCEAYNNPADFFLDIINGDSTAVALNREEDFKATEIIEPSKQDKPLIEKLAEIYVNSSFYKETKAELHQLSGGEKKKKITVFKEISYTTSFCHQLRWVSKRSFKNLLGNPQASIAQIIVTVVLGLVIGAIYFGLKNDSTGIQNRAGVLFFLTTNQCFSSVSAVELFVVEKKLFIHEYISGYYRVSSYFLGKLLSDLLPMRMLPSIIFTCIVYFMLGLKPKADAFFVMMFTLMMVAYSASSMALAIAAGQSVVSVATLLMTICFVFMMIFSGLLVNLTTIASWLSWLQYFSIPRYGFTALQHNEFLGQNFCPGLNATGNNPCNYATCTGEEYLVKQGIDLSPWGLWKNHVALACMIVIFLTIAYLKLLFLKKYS

Chain of ABCB1 (P08183 whole entry): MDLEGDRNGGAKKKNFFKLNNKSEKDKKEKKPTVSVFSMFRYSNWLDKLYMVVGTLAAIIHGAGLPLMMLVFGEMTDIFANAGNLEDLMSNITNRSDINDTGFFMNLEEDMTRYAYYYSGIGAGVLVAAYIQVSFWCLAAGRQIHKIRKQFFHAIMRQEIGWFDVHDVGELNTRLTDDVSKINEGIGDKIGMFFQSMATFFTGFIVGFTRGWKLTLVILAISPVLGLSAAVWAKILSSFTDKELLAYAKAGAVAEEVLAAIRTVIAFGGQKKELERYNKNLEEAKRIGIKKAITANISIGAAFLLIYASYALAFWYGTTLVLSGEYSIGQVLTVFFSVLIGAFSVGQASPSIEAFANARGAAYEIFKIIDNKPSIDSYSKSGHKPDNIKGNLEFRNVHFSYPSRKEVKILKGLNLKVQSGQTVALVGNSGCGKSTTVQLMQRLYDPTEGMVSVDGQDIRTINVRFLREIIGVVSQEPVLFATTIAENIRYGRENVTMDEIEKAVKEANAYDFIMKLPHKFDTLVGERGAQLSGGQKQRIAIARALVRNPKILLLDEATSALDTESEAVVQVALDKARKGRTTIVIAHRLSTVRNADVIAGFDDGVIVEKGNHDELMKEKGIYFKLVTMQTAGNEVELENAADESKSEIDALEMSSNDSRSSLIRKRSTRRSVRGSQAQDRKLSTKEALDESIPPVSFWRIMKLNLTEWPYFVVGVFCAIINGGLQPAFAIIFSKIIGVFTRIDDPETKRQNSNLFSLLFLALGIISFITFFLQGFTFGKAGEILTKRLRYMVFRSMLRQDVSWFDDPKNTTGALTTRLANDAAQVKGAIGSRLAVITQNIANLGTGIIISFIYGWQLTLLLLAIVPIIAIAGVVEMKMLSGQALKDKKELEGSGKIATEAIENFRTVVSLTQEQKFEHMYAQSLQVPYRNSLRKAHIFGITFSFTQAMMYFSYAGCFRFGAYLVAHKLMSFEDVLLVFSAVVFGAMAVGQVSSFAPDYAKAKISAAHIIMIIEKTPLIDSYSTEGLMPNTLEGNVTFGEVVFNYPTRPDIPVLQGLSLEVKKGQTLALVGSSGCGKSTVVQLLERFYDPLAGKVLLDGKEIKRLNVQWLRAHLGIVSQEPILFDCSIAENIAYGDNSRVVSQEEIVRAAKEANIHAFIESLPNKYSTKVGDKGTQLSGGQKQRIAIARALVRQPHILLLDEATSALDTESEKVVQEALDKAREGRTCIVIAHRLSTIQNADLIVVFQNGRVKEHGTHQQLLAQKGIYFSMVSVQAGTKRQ

## CCCc1nn(C)c2c(=O)[nH]c(-c3cc(S(=O)(=O)N4CCN(C)CC4)ccc3OCC)nc12 [Sildenafil]
[1]
  EC50: 5000 to 10000 nM
[2]
  EC50: 250 to 500 nM
